This is an account of results in patent US20240034753A1, “THERAPEUTIC PEPTIDES” (COHBAR, INC., priority 2020, published 2024).

Square brackets hold non-standard residues; d marks the D form. Peptide text beside a SMILES is read from it. Nle = CCCC[C@H](N)C(=O)O

For one data set, the system named is A172 Cells. The data set can be described thus: PrestoBlue cell viability assay. The conditions noted are these: human, 10 μM. The class given is cell-based. The procedure:
The effect of the peptides on cell viability can be assessed in cultured cells using suitable assay of viability such as the PrestoBlue® assay (Thermo Fisher Scientific, Waltham, MA). Peptides were initially prepared as 10 mM stock in DMSO and tested at a final concentration of 10 μM (0.1% DMSO). […] PrestoBlue Assay Reagent was purchased from Thermo Fisher Scientific. A172 human brain glioblastoma cell line was purchased from American Type Culture Collection (Manassas, VA). A172 cells were grown in DMEM supplemented with 10% FBS with 100 IU/ml penicillin and 100 μg/ml streptomycin. Cultures were maintained at 37° C. in a humidified atmosphere of 5% CO2/95% air. A172 cells were seeded at 8,000 cells per well on 96-well plates. […] Cell viability was determined using a PrestoBlue Assay reagent […] according to the manufacturer's instructions. Absorption for each sample well on the plate was measured using a Cytation 3 plate reader at 560 nm and 590 nm (BioTek, Winooski, VT). Activity was calculated relative to 0.1% DMSO untreated control. Treatment with 0.1% DMSO alone was used as the cell viability activity control. The relative standard deviation of the DMSO control was <5%.

The next data set deals with C2C12 Mouse Myoblasts. Description: Glucose utilization (glucose remaining in medium). It counts as cell-based. The conditions noted are these: peptide 10 μM, 18-22 hours, relative to 0.1% DMSO treated control cells. The method, then:
The effect of the peptides on glucose metabolism can be assessed using an assay of glucose utilization in cultured cells such as mouse myoblasts. Peptides were initially prepared as 10 mM stock in DMSO and used at a final concentration of 10 μM (0.1% DMSO). C2C12 mouse myoblast cell line was purchased from American Type Culture Collection (Manassas, VA). C2C12 cultures were maintained at 37° C. in a humidified atmosphere of 5% CO2/95% air with medium changes every second day. C2C12 cells were grown in DMEM (1 g/L glucose) supplemented with 10% FBS with 100 IU/ml penicillin and 100 μg/ml streptomycin. C2C12 cells were seeded at 7,000 cells per well on 96-well plates and cultured to confluence. Once the cell reached confluence the media was changed to DMEM (1 g/L glucose) supplemented with 2% HS with 100 IU/ml penicillin and 100 μg/ml streptomycin and maintained at 37° C. in a humidified atmosphere of 5% CO2/95% air. 5 days post-induction of differentiation fresh DMEM (1 g/L glucose) supplemented with 2% HS with 100 IU/ml penicillin and 100 μg/ml streptomycin was added to cultures. Cells were maintained at 37° C. in a humidified atmosphere of 5% CO2 and 95% air for 5 hours. After 5 hours test peptides at 10 μM or controls (0.5 mM or 1 mM metformin in 1% DMSO) prepared in fresh differentiation medium were added to cells and the cultures were maintained at 37° C. in a humidified atmosphere of 5% CO2/95% air for 18-22 hours. At the end of the incubation culture media was removed from the cells and the remaining glucose concentration was measured using a Glucose Assay kit (Abcam) according to the manufacturer's instructions, using a Cytation 3 plate reader at 570 nm (BioTek, Winooski, VT). Glucose concentrations in the medium were calculated relative to 0.1% DMSO treated control cells. The relative standard deviation of the result for the 0.1% DMSO treated control was <20%. Metformin was used as a positive control for reduction of glucose levels (increased glucose utilization glucose levels for treatment with metformin (1 mM) treatment were <20% of the 0.1% DMSO treated control value. The results are reported in Table 11.

With `CC[C@H](C)[C@H](NC(=O)[C@@H](NC(=O)[C@H](Cc1c[nH]cn1)NC(=O)[C@H](CCCNC(=N)N)NC(=O)[C@H](CC(=O)O)NC(=O)[C@H](Cc1ccc(O)cc1)NC(=O)[C@H](CC(C)C)NC(=O)[C@H](CC(C)C)NC(=O)[C@@H](NC(=O)[C@@H](N)Cc1c[nH]c2ccccc12)C(C)C)C(C)C)C(=O)NCC(=O)NCC(=O)N[C@@H](CO)C(=O)N[C@@H](CC(C)C)C(=O)N[C@@H](CS)C(=O)N[C@H](C(=O)N[C@H](C(=O)N[C@H](C(=O)N[C@@H](CCC(N)=O)C(=O)N[C@H](C(=O)N[C@@H](CCC(=O)O)C(=O)N[C@H](C)C(=O)O)C(C)C)C(C)C)C(C)C)C(C)C` [compound 24] (H-WVLLYDRHVIGGSLCVVVQVE[dA]-OH; N-terminus and C-terminus assumed), in the data set with A172 Cells, the “PrestoBlue cell viability, Percent of Control Activity” value was 96.7%. For the same compound, the “Glucose Utilization (glucose concentration in medium), Percent of Untreated Control” value in the data set with C2C12 Mouse Myoblasts worked out at 109.1%.

On to `CCCC[C@H](NC(=O)[C@H](CCCNC(=N)N)NC(=O)[C@H](CCCNC(=N)N)NC(=O)[C@@H](N)CCCNC(=N)N)C(=O)N[C@@H](Cc1ccccc1)C(=O)N[C@@H](CO)C(=O)N[C@@H](CS)C(=O)N[C@@H](Cc1ccc(O)cc1)C(=O)N[C@H](C)C(=O)N[C@@H](Cc1ccc(O)cc1)C(=O)O` [compound 20] (H-RRR[Nle]FSCY[dA]Y-OH; N-terminus and C-terminus assumed), for which the “PrestoBlue cell viability, Percent of Control Activity” value with A172 Cells turned out to be 104.7%. For the same compound, the “Glucose Utilization (glucose concentration in medium), Percent of Untreated Control” value in the data set with C2C12 Mouse Myoblasts came out at 113.2%.
